{
  "source": "ChEMBL document CHEMBL2401614",
  "about": "“Synthesis of artemisinin dimers using the Ugi reaction and their in vitro efficacy on breast cancer cells” (Bioorg Med Chem Lett, 2013)",
  "key": {"MCF-10A [1]": {"test_system": "MCF-10A", "assay": "Cytotoxicity against human MCF10A cells after 48 hrs by MTT assay", "type": "cell-based"}, "MDA-MB-231": {"test_system": "MDA-MB-231", "assay": "Cytotoxicity against human MDA-MB-231 cells after 48 hrs by MTT assay", "type": "functional, cell-based", "conditions": "MDA-MB-231, 48 h"}, "MCF-10A [2]": {"test_system": "MCF-10A", "assay": "Selectivity index, ratio of IC50 for human MCF10A cells to IC50 for human BT474 cells", "type": "functional"}, "BT-474 [3]": {"test_system": "BT-474", "assay": "Cytotoxicity against human BT474 cells after 48 hrs by MTT assay", "type": "functional, cell-based", "conditions": "BT-474, 48 h"}, "BT-474 [4]": {"test_system": "BT-474", "assay": "Ratio of artemisinin dimer succinate IC50 to compound IC50 for human BT474 cells", "type": "functional"}, "MCF-10A [5]": {"test_system": "MCF-10A", "assay": "Selectivity index, ratio of IC50 for human MCF10A cells to IC50 for human MDA-MB-231 cells", "type": "functional"}, "[6]": {"assay": "Cytotoxicity against human NCI60 cells relative to artesunate", "type": "functional"}},
  "note": "pIC50: −log10 of the molar value.",
  "data": [
    {"smiles": "C[C@H]1[C@@H](CCCN(c2c(F)c(F)cc(F)c2F)C(CC[C@H]2O[C@@H]3O[C@@]4(C)CC[C@H]5[C@H](C)CC[C@@H]([C@H]2C)[C@@]35OO4)C(=O)NCC(=O)O)O[C@@H]2O[C@@]3(C)CC[C@H]4[C@H](C)CC[C@@H]1[C@@]24OO3", "note": "(stereo not given in full)", "values": [
      {"measurement": "pIC50", "setting": "MCF-10A [1]", "result": 4.01},
      {"measurement": "pIC50", "setting": "MDA-MB-231", "result": 5.64},
      {"measurement": "Ratio IC50", "setting": "MCF-10A [2]", "result": 8200},
      {"measurement": "pIC50", "setting": "BT-474 [3]", "result": 7.92},
      {"measurement": "Ratio IC50", "setting": "BT-474 [4]", "result": 8},
      {"measurement": "Ratio IC50", "setting": "MCF-10A [5]", "result": 43}
    ]},
    {"smiles": "COC(=O)CNC(=O)C(CC[C@H]1O[C@@H]2O[C@@]3(C)CC[C@H]4[C@H](C)CC[C@@H]([C@H]1C)[C@@]24OO3)N(CCC[C@H]1O[C@@H]2O[C@@]3(C)CC[C@H]4[C@H](C)CC[C@@H]([C@H]1C)[C@@]24OO3)C(=O)c1ccccc1", "note": "(mixture of isomers)", "values": [
      {"measurement": "pIC50", "setting": "MCF-10A [1]", "result": 5.30},
      {"measurement": "pIC50", "setting": "MDA-MB-231", "result": 4.96},
      {"measurement": "Ratio IC50", "setting": "MCF-10A [2]", "result": 6.3},
      {"measurement": "pIC50", "setting": "BT-474 [3]", "result": 6.10},
      {"measurement": "Ratio IC50", "setting": "MCF-10A [5]", "result": 0.45}
    ]},
    {"smiles": "COC(=O)CNC(=O)C(CC[C@H]1O[C@@H]2O[C@@]3(C)CC[C@H]4[C@H](C)CC[C@@H]([C@H]1C)[C@@]24OO3)N(CCC[C@H]1O[C@@H]2O[C@@]3(C)CC[C@H]4[C@H](C)CC[C@@H]([C@H]1C)[C@@]24OO3)C(=O)c1cccc(OC)c1OC", "note": "(mixture of isomers)", "values": [
      {"measurement": "pIC50", "setting": "MCF-10A [1]", "result": 5.24},
      {"measurement": "pIC50", "setting": "MDA-MB-231", "result": 4.92},
      {"measurement": "Ratio IC50", "setting": "MCF-10A [2]", "result": 0.98},
      {"measurement": "pIC50", "setting": "BT-474 [3]", "result": 5.24},
      {"measurement": "Ratio IC50", "setting": "MCF-10A [5]", "result": 0.48}
    ]},
    {"smiles": "COC(=O)CNC(=O)C(CC[C@H]1O[C@@H]2O[C@@]3(C)CC[C@H]4[C@H](C)CC[C@@H]([C@H]1C)[C@@]24OO3)N(CCC[C@H]1O[C@@H]2O[C@@]3(C)CC[C@H]4[C@H](C)CC[C@@H]([C@H]1C)[C@@]24OO3)C(=O)c1ccc(N(C)C)cc1", "note": "(mixture of isomers)", "values": [
      {"measurement": "pIC50", "setting": "MCF-10A [1]", "result": 4.82},
      {"measurement": "pIC50", "setting": "MDA-MB-231", "result": 4.92},
      {"measurement": "Ratio IC50", "setting": "MCF-10A [2]", "result": 17},
      {"measurement": "pIC50", "setting": "BT-474 [3]", "result": 6.06},
      {"measurement": "Ratio IC50", "setting": "MCF-10A [5]", "result": 1.3}
    ]},
    {"smiles": "COC(=O)CNC(=O)C(CC[C@H]1O[C@@H]2O[C@@]3(C)CC[C@H]4[C@H](C)CC[C@@H]([C@H]1C)[C@@]24OO3)N(CCC[C@H]1O[C@@H]2O[C@@]3(C)CC[C@H]4[C@H](C)CC[C@@H]([C@H]1C)[C@@]24OO3)C(=O)c1cnccn1", "note": "(mixture of isomers)", "values": [
      {"measurement": "pIC50", "setting": "MCF-10A [1]", "result": 4.60},
      {"measurement": "pIC50", "setting": "MDA-MB-231", "result": 4.59},
      {"measurement": "Ratio IC50", "setting": "MCF-10A [2]", "result": 15},
      {"measurement": "pIC50", "setting": "BT-474 [3]", "result": 5.77},
      {"measurement": "Ratio IC50", "setting": "MCF-10A [5]", "result": 0.96}
    ]},
    {"smiles": "COC(=O)CNC(=O)C(CC[C@H]1O[C@@H]2O[C@@]3(C)CC[C@H]4[C@H](C)CC[C@@H]([C@H]1C)[C@@]24OO3)N(CCC[C@H]1O[C@@H]2O[C@@]3(C)CC[C@H]4[C@H](C)CC[C@@H]([C@H]1C)[C@@]24OO3)c1ccc([N+](=O)[O-])cc1", "note": "(mixture of isomers)", "values": [
      {"measurement": "pIC50", "setting": "MCF-10A [1]", "result": 4.33},
      {"measurement": "pIC50", "setting": "MDA-MB-231", "result": 5.92},
      {"measurement": "Ratio IC50", "setting": "MCF-10A [2]", "result": 490},
      {"measurement": "pIC50", "setting": "BT-474 [3]", "result": 7.02},
      {"measurement": "Ratio IC50", "setting": "MCF-10A [5]", "result": 39}
    ]},
    {"smiles": "COC(=O)CNC(=O)C(CC[C@H]1O[C@@H]2O[C@@]3(C)CC[C@H]4[C@H](C)CC[C@@H]([C@H]1C)[C@@]24OO3)N(C(=O)c1ccccc1)C(C)C", "note": "(stereo not given in full)", "values": [
      {"measurement": "pIC50", "setting": "MCF-10A [1]", "result": "< 4.00"},
      {"measurement": "pIC50", "setting": "MDA-MB-231", "result": "< 4.00"},
      {"measurement": "pIC50", "setting": "BT-474 [3]", "result": "< 4.00"}
    ]},
    {"smiles": "COC(=O)CNC(=O)C(CC[C@H]1O[C@@H]2O[C@@]3(C)CC[C@H]4[C@H](C)CC[C@@H]([C@H]1C)[C@@]24OO3)N(CCC[C@H]1O[C@@H]2O[C@@]3(C)CC[C@H]4[C@H](C)CC[C@@H]([C@H]1C)[C@@]24OO3)C(=O)C(F)(F)F", "note": "(mixture of isomers)", "values": [
      {"measurement": "pIC50", "setting": "MCF-10A [1]", "result": 5.34},
      {"measurement": "pIC50", "setting": "MDA-MB-231", "result": 4.72},
      {"measurement": "Ratio IC50", "setting": "MCF-10A [2]", "result": 0.7},
      {"measurement": "pIC50", "setting": "BT-474 [3]", "result": 5.18},
      {"measurement": "Ratio IC50", "setting": "MCF-10A [5]", "result": 0.24}
    ]},
    {"smiles": "C[C@H]1[C@H](OC(=O)CCC(=O)O)O[C@@H]2O[C@@]3(C)CC[C@H]4[C@H](C)CC[C@@H]1[C@@]24OO3", "note": "[ARTESUNATE]", "values": [
      {"measurement": "pIC50", "setting": "MCF-10A [1]", "result": 4.68},
      {"measurement": "pIC50", "setting": "MDA-MB-231", "result": 4.34},
      {"measurement": "Ratio IC50", "setting": "MCF-10A [2]", "result": 2.7},
      {"measurement": "pIC50", "setting": "BT-474 [3]", "result": 5.11},
      {"measurement": "Ratio IC50", "setting": "MCF-10A [5]", "result": 0.46}
    ]},
    {"smiles": "C[C@H]1[C@@H](CC(COC(=O)CCC(=O)O)C[C@H]2O[C@@H]3O[C@@]4(C)CC[C@H]5[C@H](C)CC[C@@H]([C@H]2C)[C@@]35OO4)O[C@@H]2O[C@@]3(C)CC[C@H]4[C@H](C)CC[C@@H]1[C@@]24OO3", "note": "(stereo not given in full)", "values": [
      {"measurement": "fold change (FC)", "setting": "[6]", "result": "<=500"},
      {"measurement": "pIC50", "setting": "MCF-10A [1]", "result": 4.68},
      {"measurement": "pIC50", "setting": "MDA-MB-231", "result": 6.62},
      {"measurement": "Ratio IC50", "setting": "MCF-10A [2]", "result": 210},
      {"measurement": "pIC50", "setting": "BT-474 [3]", "result": 7.00},
      {"measurement": "Ratio IC50", "setting": "MCF-10A [5]", "result": 88}
    ]}
  ]
}
